Measured values reported in publication PMC5244594 (Biotechnology for Biofuels, 2017).

Biological target: T1, GLT-1 (Neurospora crassa, UniProt Q1K4S3)
T1 construct: gene NCU01633
Assay: radiolabeled glucose uptake in S. cerevisiae EBY.VW4000
Assay type: cell-based
Conditions: labelled compound; transport into whole yeast cells expressing the eGFP fusion

T1 sequence (Q1K4S3 entry or part of it): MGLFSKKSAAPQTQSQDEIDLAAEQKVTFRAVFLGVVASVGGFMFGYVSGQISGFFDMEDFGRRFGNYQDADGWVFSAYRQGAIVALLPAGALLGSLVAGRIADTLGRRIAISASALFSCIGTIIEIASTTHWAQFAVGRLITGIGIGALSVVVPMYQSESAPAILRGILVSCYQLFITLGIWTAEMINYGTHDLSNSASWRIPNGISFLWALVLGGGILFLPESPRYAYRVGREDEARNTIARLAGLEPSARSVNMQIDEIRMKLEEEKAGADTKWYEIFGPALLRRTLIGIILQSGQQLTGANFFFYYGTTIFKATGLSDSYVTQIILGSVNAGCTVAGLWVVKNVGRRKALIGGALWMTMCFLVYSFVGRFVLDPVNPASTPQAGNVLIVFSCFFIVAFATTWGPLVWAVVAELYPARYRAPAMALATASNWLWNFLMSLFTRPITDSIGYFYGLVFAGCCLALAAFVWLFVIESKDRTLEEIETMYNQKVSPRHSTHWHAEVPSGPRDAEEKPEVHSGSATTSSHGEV

SMILES: OC[C@H]1OC(O)[C@H](O)[C@@H](O)[C@@H]1O (stereo partly shown) [glucose]
- Km: 18.4 ± 3.38 mM
